Measured values from patent US11787847B2, “Method of identifying malodor modulating compounds” (FIRMENICH SA, priority 2017, dated 2023).

Tests used:
OR4S2 = biological target: T1, OR4S2 (Homo sapiens, UniProt Q8NH73); experiment: cell-based dose-response, cAMP increase by HTRF, HEK293T cells (endogenous RTP1 activated) co-transfected with human Golf, Rho-FLAG tagged receptor; parameters: the human receptors were tagged with a Rho-FLAG® tag combination; expressed in transfected cells
T1 sequence (Q8NH73 1-311): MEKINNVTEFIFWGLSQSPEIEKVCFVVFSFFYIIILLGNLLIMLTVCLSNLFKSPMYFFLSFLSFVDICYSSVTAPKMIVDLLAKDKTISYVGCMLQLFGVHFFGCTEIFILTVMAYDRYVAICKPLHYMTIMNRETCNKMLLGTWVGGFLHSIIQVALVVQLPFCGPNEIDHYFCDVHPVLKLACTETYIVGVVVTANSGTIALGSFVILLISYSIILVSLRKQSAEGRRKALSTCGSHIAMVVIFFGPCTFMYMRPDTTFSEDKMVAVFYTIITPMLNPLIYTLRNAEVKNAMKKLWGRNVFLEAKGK
Experimental: (§1) Functional dose-response experiments were performed to evaluate the level of DMTS activity of the modified cell line expressing individual putative DMTS receptors. Using a cell-based assay, mouse receptor Olfr1193, Olfr1093, Olfr1097, Olrf166, Olfr169, Olfr738 and Olfr742, and human receptor OR4S2 and OR52N5 were tested in an HEK293T cell line wherein the endogenous RTP1 gene has been activated and the odorant receptor chaperone protein was expressed (described in WO2016/201153). The mouse receptor genes were tagged with a Lucy-FLAG®-Rho tag combination and the human receptors were tagged with a Rho-FLAG® tag combination resulting in a tag:receptor fusion protein for the cell based assay. Receptor genes were co-transfected with the canonical olfactory human G-protein alpha subunit Golf gene and were exposed to increasing concentrations of the malodor odorant. Co-expression of the human Golf activates the Gs transduction pathway that leads to an internal cAMP increase upon binding to the appropriate ligand. Odorant-induced activity was detected by measuring the cAMP increase in the cytosol using an Homogeneous Time Resolved Fluorescence (HTRF) based kit (CisBio, cAMP dynamic 2 kit, cat. 62AM4PEJ). […]

[1] = system: human receptors OR2L13, OR4C15, OR5AC2, OR8H3, OR11G2 or OR52N2; experiment: Ca2+ (Calcium 5 dye, FLIPR) dose-response assay in stable HEK293T cell lines (Example 3); assay type: cell-based; conditions: increasing concentrations of DMTS, co-expressed Galpha15
Experimental: Functional dose-response experiments were performed to evaluate the level of DMTS activity of the modified cell lines expressing individual putative DMTS receptors. A cell line stably expressing a human receptor was generated in a HEK293T cell line for each of the following human receptors: OR2L13, OR4C15, OR5AC2, OR8H3, OR11G2 or OR52N2. The receptors were tagged with a FLAG®-Rho tag combination and stably co-expressed with the human G-protein alpha subunit Gals for the cell based assay. Co-expression of the human Gals activates the Gq transduction pathway that leads to an internal Ca^2+ increase upon binding to the appropriate ligand. Receptors were exposed to increasing concentrations of DMTS. Odorant-induced activity was detected by measuring the Ca^2+ increase in the cytosol using a calcium sensitive fluorescent dye (Molecular Devices, Calcium 5 dye, cat. R8186) and measuring the change in Relative Fluorescence Ratio (RFU) using a fluorometric imaging plate reader (Molecular Devices, FLIPR) following odorant exposure. […] A cell line lacking a receptor was used as a control for non-specific activity at high compound concentrations (‘No receptor’). The activity levels are reported by the potency of the DMTS induced-response for each receptor as a measure of the EC50 value.

human receptor OR52N5 = biological target: T2, human receptor OR52N5 (Homo sapiens, UniProt Q8NH56); experiment: cell-based dose-response, cAMP increase by HTRF, HEK293T cells (endogenous RTP1 activated) co-transfected with human Golf, Rho-FLAG tagged receptor; conditions: FIG. 2, Example 2, SEQ ID NO: 24
T2 construct: the human receptors were tagged with a Rho-FLAG® tag combination; expressed in transfected cells
T2 sequence (Q8NH56 1-324): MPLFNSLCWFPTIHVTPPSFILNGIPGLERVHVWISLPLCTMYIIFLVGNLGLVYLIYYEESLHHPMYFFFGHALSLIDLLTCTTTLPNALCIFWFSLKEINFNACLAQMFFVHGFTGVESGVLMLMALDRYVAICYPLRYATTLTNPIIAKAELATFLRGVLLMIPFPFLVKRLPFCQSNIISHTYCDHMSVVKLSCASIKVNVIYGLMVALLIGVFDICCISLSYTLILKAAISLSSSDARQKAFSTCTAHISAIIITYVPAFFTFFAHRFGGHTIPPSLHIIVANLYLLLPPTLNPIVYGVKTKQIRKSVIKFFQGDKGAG
Experimental: as §1

[2] = system: cells that do not express the odorant receptors (HEK293T); experiment: Mock transfection control experiment (Example 5); assay type: cell-based
Experimental: as §1

EC50 (OR4S2; FIG. 2, Example 2, SEQ ID NO: 42): 2000 nM | EC50 (OR4S2; FIG. 5, Example 5, SEQ ID NO: 42): 325 nM | EC50 (human receptor OR52N5): 10000 nM
SMILES: CSSSC [DMTS, dimethyl trisulfide]
receptor activity (Ca2+ increase in the cytosol, RFU) [1]: dose-dependent increase of receptor activity | activity upon exposure in mock transfected cells [2]: did not show activity
